The values that follow come from US11229641B2, “Inhibitors of Bcl-2” (CASE WESTERN RESERVE UNIVERSITY, priority 2016, dated 2022).

Data set [1] concerns the target T1, BH4 domain of Bcl-2 (Homo sapiens, UniProt P10415).
T1 construct: borders or tags not given
Put plainly: Surface plasmon resonance (Biacore) binding to the BH4 domain of Bcl-2. To be noted: SPR; for Kd: dose response / full binding curve. The text has this: The next step in compound validation was to perform surface plasmon resonance (Biacore) to test for binding to the BH4 domain of Bcl-2. […] To date, we have positive evidence of compound binding to the BH4 domain in 4 compounds tested by SPR (FIG. 8). Testing of the remaining compounds from the 14 lead compounds is in progress.

Data set [2] relates to primary human CLL cells. Put plainly: Cell death induction in primary human CLL cells (MTS assay). The format is cell-based. On the procedure:
(§1) Of the compounds tested, 148 were identified as hits at 6.5 μM in the primary single-point screen with activity>30% relative to apoptosis induced by 10 μM BIRD-2 in NCI-H929 cells. These compounds, along with 320 additional compounds chosen by virtual screening, were screened for hit confirmation. Also, a secondary assay for compound effect on apoptosis was performed in KMS-12-BM cells. […] Thus, a total of 39 compounds were chosen for triplicate confirmation screening. The findings are schematically summarized by means of the heat map in FIG. 5. An ID number, assigned by the chemist(s) who synthesized the compounds, is located to the left. This ID is for identification purposes only and does provide other information about the compound. Columns 1 and 2 represent caspase activity, measured after 24 hr of treatment at UCDDC, normalized to the highest caspase activity observed. Activity levels range from low, represented by the color purple, to high, represented by the color red. Considerable variation among different compounds and between the myeloma lines is observed evident. Columns 3 and 4 in the heat map (FIG. 5) summarize results of cell death assays testing cell death induction in the same myeloma lines in the Distelhorst laboratory using the MTS assay. In addition, the same assay was used to test the sensitivity of primary human CLL cells to each compound, as summarized in lane 5. The effect of each compound on intracellular Ca^2+ concentration was measured by digital imaging and results are shown as percentage of cells responding with a significant (more than twofold above baseline) elevation of cytoplasmic Ca^2+ concentration. The choice of the Jurkat line for these Ca^2+ measurements was based on our extensive evidence that BIRD-2 binds to the BH4 domain of Bcl-2 endogenously present in this line and that disruption of Bcl-2-IP3R interaction by BIRD-2 elevates cytoplasmic Ca^2+ in this line. An example of Ca2^+ elevation in response to one of the compounds is illustrated in FIG. 6.

The subject of data set [3] is multiple myeloma lines. As to the kind of experiment: Cell death induction in multiple myeloma lines (MTS assay). The format is cell-based, human. On the procedure: as §1
The subject of data set [4] is KMS-12-BM human myeloma cells. Put plainly: Combination with ABT-263, cell viability by CellTiter-Glo assay. The format is cell-based. To be noted: fixed concentration ratio, at several compound concentrations, CI<1 synergistic. The text has this: Since Bcl-2 works by two distinct mechanisms to inhibit apoptosis, we investigated the possibility that 854697 and ABT-263, which selectively target each of these mechanisms, might synergistically kill cancer cells. […] Combination indices (CI) were computed at each concentration to determine whether the increased cytotoxicity is due to an additive (CI=1) or synergistic (CI<1) effect. At several compound concentrations, the CI was <1, indicating synergistic cell death induction when these agents that act by different mechanisms are combined. These findings indicate additional value in developing 854697 as a novel therapeutic agent for Bcl-2-positive malignancies.

Data set [5] concerns primary human CLL cells. As to the kind of experiment: Ca2+ elevation in primary CLL cells. The format is cell-based.
In data set [6] the test system is normal human peripheral blood lymphocytes. Put plainly: Toxicity toward normal cells. The format is cell-based.
In data set [7] the test system is Jurkat cells. As to the kind of experiment: Cytoplasmic Ca2+ elevation by digital imaging in Jurkat cells. The format is cell-based. The method, then: as §1, with “These” for “Of the compounds tested, 148 were identified as hits at 6.5 μM in the primary single-point screen with activity>30% relative to apoptosis induced by 10 μM BIRD-2 in NCI-H929 cells. These”, “Columns 3 and 4 in the heat map (FIG. 5) summarize results of cell death assays testing cell death induction in the same myeloma lines in the Distelhorst laboratory using the MTS assay.” left out, “The choice of the Jurkat line for these Ca^2+ measurements was based on our extensive evidence that BIRD-2 binds to the BH4 domain of Bcl-2 endogenously present in this line and that disruption of Bcl-2-IP3R interaction by BIRD-2 elevates cytoplasmic Ca^2+ in this line.” left out, “6. […]” for “6.”

In data set [8] the test system is small cell lung cancer (SCLC) cells. Put plainly: Cytotoxicity in small cell lung cancer (SCLC) lines. The format is cell-based.
Data set [9] has as its target T2, Bfl-1 (Homo sapiens, UniProt Q16548).
T2 sequence (Q16548 1-175): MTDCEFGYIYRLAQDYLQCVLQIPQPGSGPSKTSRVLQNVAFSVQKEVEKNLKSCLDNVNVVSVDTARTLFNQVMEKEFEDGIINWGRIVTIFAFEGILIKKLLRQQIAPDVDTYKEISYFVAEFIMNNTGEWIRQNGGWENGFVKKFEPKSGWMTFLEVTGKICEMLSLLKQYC
To be noted: read-out: IC50 displacing BH3 peptides; cited from earlier work.

In data set [10] the target is Bcl-XL (Homo sapiens, UniProt Q07817). To be noted: read-out: IC50 displacing BH3 peptides; cited from earlier work.
Sequence of Bcl-XL (Q07817 whole entry, species assumed): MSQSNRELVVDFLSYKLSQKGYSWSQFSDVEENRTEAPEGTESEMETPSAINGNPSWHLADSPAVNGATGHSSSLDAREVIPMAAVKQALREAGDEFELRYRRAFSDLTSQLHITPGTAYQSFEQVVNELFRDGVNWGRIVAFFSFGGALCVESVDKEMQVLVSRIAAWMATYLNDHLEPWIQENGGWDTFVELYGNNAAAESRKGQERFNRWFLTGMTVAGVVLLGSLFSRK
Data set [11] addresses T3, Bcl-B (Homo sapiens, UniProt Q9HD36).
T3 sequence (Q9HD36 1-204): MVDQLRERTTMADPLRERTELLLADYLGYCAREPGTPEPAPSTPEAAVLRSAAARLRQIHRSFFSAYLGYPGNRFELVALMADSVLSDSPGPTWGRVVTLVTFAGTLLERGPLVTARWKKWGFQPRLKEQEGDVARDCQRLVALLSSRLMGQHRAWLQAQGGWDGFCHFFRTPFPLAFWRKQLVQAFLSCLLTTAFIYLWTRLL
As to conditions: read-out: IC50 displacing BH3 peptides; cited from earlier work.

Data set [12] deals with human myeloma cell lines (HMCLs). Put plainly: Apoptosis induction in human myeloma cell lines (HMCLs). The format is cell-based. To be noted: including two lines resistant to ABT-737, ABT-263 and ABT-199. The source says:
Furthermore, one of the BIRD-2-sensitive lines, NCI-H929, corresponds to a multiple molecular subgroup that is resistant to BH3-mimetic agents and belongs to a poor prognosis category associated with chromosomal translocation. Thus, although BH3-mimetic agents represent a major advance in cancer treatment, resistance to these agents occurs and limits their efficacy, not only in multiple myeloma but other lymphoid malignancies as well. The resistance problem is not unique to HMCLs, but is illustrated by studies of ABT-737 and ABT-199 in primary MM cells where resistance was detected in more than half of primary patient samples tested. Therefore, these findings indicate the potential therapeutic importance of targeting both of Bcl-2's anti-apoptotic mechanisms. Adding to the potential value of targeting Bcl-2-IP3R interaction for treatment of multiple myeloma is the evidence reported here of synergistic activity when combined with chemotherapeutic agents typically employed in multiple myeloma treatment, and with ABT-263 and ABT-199.

The subject of data set [13] is H2171 Small cell lung cancer (SCLC) cells. As to the kind of experiment: BIRD-2/ABT-263 combination cytotoxicity in SCLC cells. To be noted: 24 hr, FIG. 4. The format is cell-based. The method, then: FIG. 4 is a graph illustrating BIRD-2/ABT-263 synergism. H2171 Small cell lung cancer (SCLC) cells treated from 24 hr with 5 μM BIB1 and 39 nM ABT-263 alone or together.

Several values for one entry are separate records, joined by “and”; a condition that tells them apart may be missing. Equal values may be shown once. Where no end group is shown, it is not given here. Bounds are passed on as bounds.

T1 sequence (P10415 6-30 limits assumed): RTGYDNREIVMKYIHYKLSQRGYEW

As to `CSc1c(C#N)c(N)nc(SCC(=O)c2ccc(OC(F)F)cc2)c1C#N` [compound 197392], the “binding to the BH4 domain of Bcl-2” value in data set [1] was “bind to the BH4 domain of Bcl-2”. Besides, the cell death induction entry in data set [2] and in data set [3] was “inducing cell death” throughout.
Regarding `CN(C)C(=O)OCC(Cc1ccc2ccccc2c1)N1CCN(C(=O)C(N)Cc2ccc(F)cc2)C(CO)C1` (centres unmarked) [compound 854697], the “binding to the BH4 domain of Bcl-2” value in data set [1] is recorded as “bind to the BH4 domain of Bcl-2”. In addition, the Kd in [1] was 5.6 µM and 5.7 µM and 5.71 µM. The “Combination index (CI) with ABT-263” value in data set [4] is on record as under 1. Moreover, the figures for the “Ca2+ elevation” value in [5] and in data set [7] (Jurkat cells) were “induces Ca^2+ elevation” and “inducing IP3R-mediated Ca^2+ elevation”, respectively. Also, the cell death induction result in [2] and in data set [3] was “inducing cell death” throughout. The “toxic activity toward normal cells” value in [6] is recorded as “does not have toxic activity toward normal cells”. The “killing of small cell lung cancer cells” value in data set [8] is recorded as “kills small cell lung cancer cells”.
`COc1ccc2c(c1)CC[C@@H]1[C@@H]2CC[C@]2(C)[C@@H](NCCCCCCN3C(=O)C=CC3=O)CC[C@@H]12` [U73122, reference compound]: the “effect on 854697-induced Ca2+ elevation” value in data set [7] (Jurkat cells pretreated 30 min with U73122) was “completely blocked”.
Turning to `Cc1cc2c(C(C)C)c(O)c(O)c(C=O)c2c(O)c1-c1c(C)cc2c(C(C)C)c(O)c(O)c(C=O)c2c1O` [Gossypol, 1,6,7,1′,6′,7′-Hexahydroxy-5,5′-diisopropyl-3,3′-dimethyl-[2,2′]binaphthalenyl-8,8′-dicarbaldehyde], the IC50 in [9], in data set [10] and in [11] was about 0.5 µM throughout.
Turning to `O=C(/C=C/c1ccc(Cl)c(Cl)c1)NN1CCOC1=O` [compound 96505], in data set [1], the “binding to the BH4 domain of Bcl-2” value is on record as “bind to the BH4 domain of Bcl-2” and binding was characterised by a dissociation constant (Kd) of 24 µM. Besides, the cell death induction result in data set [2] is on record as “inducing cell death”. Besides, in data set [3], the cell death induction result was “inducing cell death”.
Take “RKKRRQRRRGGNVYTEIKCNSLLPLAAIVRV [BIRD-2]”: the apoptosis induction entry in data set [12] is “induces apoptosis”. In data set [8] (15 SCLC lines treated), the selective cytotoxicity entry was “greater than two-fold selective cytotoxicity in 11 of the lines”. For the same compound, the “cytotoxicity in combination with ABT-263” value in [13] was “synergistic cytotoxicity”.
